The text below walks through data of patent EP4471049A1 (Zealand Pharma A/S, priority 2023, dated 2024).

The nature of data set [1]: Peptide stability in simulated gastric fluid (SGF). The class given is in vitro ADME. As to conditions: pig, simulated gastric fluid (SGF) with porcine pepsin, 37 °C, pH 1.2, porcine pepsin 3.2 g/L. A digest of the protocol:
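Peptide incubated at 37 °C with gentle shaking in SGF (NaCl, pH 1.2). Samples centrifuged, diluted and analysed by LC-HRMS; percent remaining at each timepoint from absolute peak areas relative to time zero, with 4 h as the reference point.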

Data set [2] deals with IL-23 mediated STAT3 signalling (Homo sapiens, UniProt Q5VWK5). As to the kind of experiment: Functional inhibition of IL-23 mediated STAT3 signalling (phospho-STAT3 Tyr705 MSD, DB cells). The conditions noted are these: Example 2 (Tables 2-1 to 2-4), read-out: IC50 (pSTAT3). The class given is cell-based. As for the experimental part: The ability of compounds to inhibit IL-23 mediated signalling was determined in the human-derived DB cell line (CRL-2289) (hereafter referred to as DB cells), which endogenously expresses the human IL-23R and human IL-12R β1 subunits. Upon binding of IL-23, the IL-23R forms a heterodimer signalling complex together with IL-12R β1, which through the JAK2/STAT3 pathway promotes phosphorylation of STAT3 to form phospho-STAT3. In the assay, the functional antagonism of IL-23 mediated phospho-STAT3 formation in DB cells by the compound is quantified using reagents capable of measuring the phosphorylation state of Tyr705 of STAT3 in the form of a phospho-STAT3 (Tyr705) MSD (Meso Scale Discovery) kit.
Sequence of IL-23 mediated STAT3 signalling (Q5VWK5 24-629 limits assumed): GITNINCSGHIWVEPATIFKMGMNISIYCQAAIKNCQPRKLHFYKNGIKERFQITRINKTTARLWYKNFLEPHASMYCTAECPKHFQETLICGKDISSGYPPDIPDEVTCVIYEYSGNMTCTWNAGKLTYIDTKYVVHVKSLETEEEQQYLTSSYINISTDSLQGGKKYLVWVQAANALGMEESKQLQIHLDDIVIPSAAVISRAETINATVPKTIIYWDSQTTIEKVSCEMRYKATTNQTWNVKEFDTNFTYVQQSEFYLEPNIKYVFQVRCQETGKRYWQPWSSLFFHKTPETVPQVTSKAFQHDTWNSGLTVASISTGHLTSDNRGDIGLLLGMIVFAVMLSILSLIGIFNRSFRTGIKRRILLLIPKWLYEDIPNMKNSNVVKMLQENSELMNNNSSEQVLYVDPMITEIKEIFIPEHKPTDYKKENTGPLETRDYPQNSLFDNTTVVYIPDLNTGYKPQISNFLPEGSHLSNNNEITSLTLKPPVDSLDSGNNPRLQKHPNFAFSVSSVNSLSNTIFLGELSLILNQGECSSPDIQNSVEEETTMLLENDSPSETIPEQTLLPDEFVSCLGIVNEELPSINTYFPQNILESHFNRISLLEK
[…]. For compounds tested in this assay, the response was normalized relative to control values to calculate the IC50 and maximal inhibitory response from a concentration response curve of the compound in presence of a fixed concentration of human IL-23.
The assay procedure was as follows. DB cells were maintained in growth medium consisting of RPMI-1640 [Invitrogen 61870-010] supplemented with 10% V/V Foetal Bovine Serum (FBS) [(heat inactivated), Invitrogen 10270-106], and 1% V/V Penicillin-Streptomycin (Pen-Strep) Solution [Invitrogen 15140]. On the day of assay, cells were resuspended in Assay buffer consisting of RPMI-1640 [Invitrogen 61870-010] supplemented with 0.1 % w/V BSA [Sigma-Aldrich A9430] to a density of 7.5x10^6 cells/mL. Compounds to be tested for inhibition of hIL-23 mediated signalling were serially diluted in Assay buffer to 3X the final concentration. A solution of hIL-23 corresponding to 3X the EC80 of hIL-23 (1.7 nM) was also prepared in Assay buffer. To initiate the assay, 20 µL of DB cell suspension (corresponding to 150.000 cells/well) was added to the wells of a 96-well V-bottom Polypropylene plate [Corning 3363] followed by addition of 3X 20 µL of the diluted test compounds to separate wells. Following preincubation of the DB cells with inhibitor for 15 min in a cell incubator (37 °C, 5% CO2), 20 µL of the prepared 3X the EC80 of hIL-23 solution was added to each well and incubated for 90 min in a cell incubator (37 °C, 5% CO2). For some wells buffer only or IL-23 only corresponding to the EC80 was added to obtain readouts needed for normalization. To terminate the assay, the plate was spun at 1000 G for 5 min to pellet cells, the supernatant removed using an 8-channel manual pipette, and then added 50 µL/well Complete Lysis Buffer from the MSD STAT3 kit (Cat# K150SVD, Mesoscale) to the cell pellet. To completely lyse cells to release phospho-STAT3 for detection, the plate was shaken for 10 min at room temperature (500 rpm) sealed with aluminium foil and placed at -80 °C for a minimum of 15 min. Detection of the phospho-STAT3 level in the cell lysate from the individual wells was determined using the MSD STAT3 kit (Cat# K150SVD, Mesoscale) and read on a Meso QuickPlex SQ 120 plate reader (Mesoscale).
For data analysis raw data counts from the Meso QuickPlex SQ 120 plate reader were normalized relative to the response by the EC80 of hIL-23 alone (no compound added) and the buffer level. Compound potency (IC50) and maximal inhibitory response (% inhibition) were estimated by computer-aided curve fitting using a 4-parameter logistic (4PL) non-linear model. […]. Typically compounds with a low IC50 are desired. Typically compounds capable of completely inhibiting the IL23-induced response are desired. […]. Table 3-2: hIL-23 (pSTAT3) antagonist IC50 and % inhibition data

A short description of data set [3]: Peptide stability in simulated intestinal fluid (SIF). The class given is in vitro ADME. The conditions noted are these: for remaining at 4 h, 10 µM: pH 6.8, Example 2 (Tables 2-1 to 2-4), intact peptide remaining after 4 h, read-out: SIF (% after 4 h). An outline of the steps: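 Peptides were incubated at 37 °C with gentle shaking in pH 6.8 potassium phosphate SIF containing porcine pancreatin (10 g/L). Supernatants were analysed by LC-HRMS. Percent remaining at each timepoint, including 4 h, was calculated relative to time zero from absolute peak areas.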

Where [4] appears, read: 37 °C, pH 6.8, porcine pancreatin 10 g/L, 10 µM.
Where [5] appears, read: pig, simulated intestinal fluid (SIF) with porcine pancreatin.

Molecules are shown by their SMILES. *1 amine or outer side, *2 acyl side, *3 side chain or, on linkers, in order; H or OH if unused. Where a SMILES comes first, the peptide text is derived from it. Bridges are numbered along the chain shown (N, C = ends). [ ]: non-standard residue; d: D form. 2Nal = N[C@@H](Cc1ccc2ccccc2c1)C(=O)O; AEF = NCCOc1ccc(C[C@H](N)C(=O)O)cc1; X1 = O=C(Cc1ccc(CN[*:1])cc1)[*:2]; 3Pal = N[C@@H](Cc1cccnc1)C(=O)O; αMeL = CC(C)C[C@](C)(N)C(=O)O; Dab = NCC[C@H](N)C(=O)O

One may read the IC50 as the midpoint of a concentration-inhibition curve.

Take `CC(C)C[C@]1(C)NC(=O)[C@H](Cc2ccc3ccccc3c2)NC(=O)[C@H](Cc2ccc(OCCN)cc2)NC(=O)[C@@H]2CCNC(=O)CC[C@H](NC(=O)[C@H](CO)NC(=O)Cc3ccc(cc3)CNC(=O)CC[C@@H](C(=O)N[C@@H](CCN)C(=O)N[C@@H](Cc3cccnc3)C(=O)N[C@H](Cc3c[nH]cn3)C(N)=O)NC1=O)C(=O)N[C@@H](Cc1c[nH]c3ccccc13)C(=O)N[C@@H](CCC(N)=O)C(=O)N2` [Compound 10, [4-Aminomethyl-phenylacetyl](1c)*SE(2c)WQ[Dab](2c)[Y(2-aminoethoxy)][2-Nal][2-Me-Leu]E(1c)[Dab][3-(3-Pyridyl)-Ala][{d}H]-[NH2]] ([X1]SEWQ[Dab][AEF][2Nal][αMeL]E[Dab][3Pal][dH]-NH2; lactam 3-6, N-10): the remaining at 1 h, 10 µM in data set [1] (1 h) is 97%; in data set [3] (pig, simulated intestinal fluid (SIF) with porcine pancreatin, 1 h, 37 °C, pH 6.8, porcine pancreatin 10 g/L, 10 µM), 34%. The remaining at 4 h, 10 µM in data set [1] is 86%; in data set [3] (setting [5]) it was 11%. In addition, the concentration for half-maximal inhibition (IC50) in data set [2] turned out to be 0.038 nM. In addition, the “SIF (% remaining 4 h)” value in data set [3] (setting [4]) is 11%.

With `CC(C)C[C@]1(C)NC(=O)[C@H](Cc2ccc3ccccc3c2)NC(=O)[C@H](Cc2ccc(OCCN)cc2)NC(=O)[C@@H]2CCNC(=O)CC[C@H](NC(=O)[C@H](CO)NC(=O)Cc3ccc(cc3)CNC(=O)CC[C@@H](C(=O)N[C@@H](CCN)C(=O)N[C@H](Cc3c[nH]cn3)C(N)=O)NC1=O)C(=O)N[C@@H](Cc1c[nH]c3ccccc13)C(=O)N[C@@H](CCC(N)=O)C(=O)N2` [Compound 13, [4-Aminomethyl-phenylacetyl](1c)*SE(2c)WQ[Dab](2c)[Y(2-aminoethoxy)][2-Nal][2-Me-Leu]E(1c)[Dab][{d}H]-[NH2]], the remaining at 4 h, 10 µM in data set [1] was 78%; in data set [3] (setting [5]), 56%. The IC50 in data set [2] came out at 6.8 nM. The “SIF (% remaining 4 h)” value in data set [3] (setting [4]) is given as 56%.
